Patent US4505929A, “Sulfur-substituted diphenyl ethers having antiviral activity” (The Dow Chemical Company, priority 1982, dated 1985)
Values after ≈ are worked out from the molar mass of the structure shown.

Key:
[1] = Cytotoxicity to HeLa cells in tissue culture testing; format: cell-based; details: human, G.I. = growth inhibition: at the concentration shown the compound inhibited growth of the tissue culture, read-out: Cytotoxicity (G.I.)
Description: (§1) Monolayered HeLa cells in 16 millimeter (mm) tissue culture dishes were treated with 1 ml of culture medium (Eagles medium supplemented with fetal calf serum) containing subject compound at an appropriate concentration or containing no compound at all. Culture media such as those described herein are more fully described in standard texts, as for example, Kuchler's Biochemical Methods in Cell Culture and Virology, Dowden, Hutchinson and Ross, Inc., Stroudsberg, PA (1977). Following treatment, cells were challenged with 0.05 ml of rhinovirus type 1A (RV-1A), rhinovirus type 2 (RV-2) or Coxsackie A21 virus (Cox A21) in culture medium. Some of the compounds were also tested against rhinovirus type 5 (RV-5), rhinovirus type 8 (RV-8) or rhinovirus type 64 (RV-64). Cell controls received no viruses.
^x Cytotoxicity figures represent the concentration of the compound,
micrograms/milliliter (μg/ml) found to be toxic to the cell.
means "approximately "; "<<" "considerably less than " and "G.I." means

[2] = test system: rhinovirus type 1A (RV-1A); assay: Tissue culture antiviral test (HeLa cells), RV-1A; format: cell-based; details: Enterovirus, 48 and 72 hours post-treatment, read-out: Lowest concentration necessary to cause a 50 percent reduction in cytopathic effect, RV-1A
Description: as §1
(§2) ^xx Lowest concentration of the compound (μg/ml) necessary to caus
(§3) a 50 percent reduction in cytopathic effect.

rhinovirus type 2 (RV-2) = assay: Tissue culture antiviral test (HeLa cells), RV-2; format: cell-based; details: Enterovirus, 48 and 72 hours post-treatment, read-out: Lowest concentration necessary to cause a 50 percent reduction in cytopathic effect, RV-2
Description: as §1, §2, §3

[3] = test system: Coxsackie A21 virus (Cox A21); assay: Tissue culture antiviral test (HeLa cells), Cox A21; format: cell-based; details: 48 and 72 hours post-treatment, read-out: Lowest concentration necessary to cause a 50 percent reduction in cytopathic effect, Cox A21
Description: as §1, §2, §3

rhinovirus type 8 (RV-8) = assay: Tissue culture antiviral test (HeLa cells), RV-8; format: cell-based; details: Enterovirus, 48 and 72 hours post-treatment, read-out: Lowest concentration necessary to cause a 50 percent reduction in cytopathic effect, RV-8
Description: as §1, §2, §3

[4] = test system: rhinovirus type 64 (RV-64); assay: Tissue culture antiviral test (HeLa cells), RV-64; format: cell-based; details: Enterovirus, 48 and 72 hours post-treatment, read-out: Lowest concentration necessary to cause a 50 percent reduction in cytopathic effect, RV-64
Description: as §1, §2, §3

Cox A21 = assay: Single Oral Dose test in Cox A21 infected mice; format: in vivo, Swiss male mice
Description: In addition, some of the compounds were tested in animals utilizing the following procedure, hereinafter referred to as the "Single Oral Dose" test. Swiss male mice, 10-12 grams in weight were challenged intraperitoneally (IP) with 0.2 ml of a normally lethal dose, i.e. a virus dose sufficient to cause .congruent.80-100% mortality in infected animals within 10 days of challenge of Cox A21, in phosphate buffered saline containing 1% heat inactivated fetal calf serum. Three hours later mice were treated orally (P.O.) with 0.2 ml of compound suspended in 0.5% hydroxypropyl methylcellulose (Methocel) or with 0.2 ml of 0.5% Methocel containing no compound. […] Mice were observed daily for 7-10 days post-challenge and deaths recorded. A modified Mantel-Haenzel combined chi-square procedure was used to determine significant difference between virus control and treated groups. Chi-square values greater than 3.84 are considered significant (95% confidence level) in this test.

Coxsackie A21 virus = assay: Continuous Oral Feeding test in Coxsackie A21 infected mice; format: in vivo; details: in diet
Description: Some of the compounds were also tested in animals utilizing the following procedure, hereinafter referred to as the "Continuous Oral Feeding" test. Coxsackie A21 virus grown on HeLa cells was administered at a concentration that produces 80 to 100% deaths in mice weighing 10 to 11 grams within 10 days, when the mice are injected (IP) with 0.2 ml of virus preparation. Mice were placed on diets containing test compound dispersed in plain commercially available rodent mash chow at a concentration of 0.05% (weight percent) on day 0. On day 1 the mice were challenged with the virus preparation, 0.2 ml/mouse, (IP). Deaths in both control and experimental groups were recorded for the 10 days and the results analyzed by a chi-square (X^2) test. Chi-square values greater than 3.84 indicate the compound is active (95% confidence level).
^xxx Percent (by weight) of test compound in the diet fed to test

[5] = test system: Hank's (untyped) rhinovirus; assay: Inhibition of cytopathic effect in Wl-38 cells, Hank's (untyped); format: cell-based; details: Enterovirus, WI-38, 25 μg/ml, Wl-38 human embryonic lung cells, read-out: inhibition grade
Description: (§4) Solutions of 4-(4-(methylsulfonyl)phenoxy)-1,2-dichlorobenzene were prepared by dissolving 5 milligrams of the compound in 0.1 ml dimethyl sulfoxide and incubating at 56° C. for at least 15 minutes. This solution was added to 0.9 ml of warmed (56° C.) maintenance medium (49% Eagles, 49% medium 199, 2% fetal calf serum and antibiotics), and the resulting 1.0 ml was then added to 9 ml of warmed (56° C.) maintenance medium. From this solution the final concentrations of 100, 50, 25, or 12.5 μg/ml were made up with maintenance medium.
(§5) Triplicate cell culture tubes (Wl-38 human embryonic lung cell culture tubes) were fed with 1 ml of medium containing the compound at specified concentrations and inoculated with 3-300 TCID50 (3-300 times the tissue culture infective dose 50, i.e., the dose required to infect 50% of the cell cultures tested. Simultaneous viral titrations were performed. The tissue cultures were supplemented with fresh medium when necessary (around 3-4 days) until viral titrations were completed.
(§6) The cell culture tubes were examined daily for cytopathic effect. […] Comparisons were made at that time with the percentage of cell sheet destruction in tubes containing virus compound mixtures. Observed differences of 75% or more were graded "+", 74-50% as "±", and less than 50% as "-" inhibition.

rhinovirus type 4 = assay: Inhibition of cytopathic effect in Wl-38 cells, type 4; format: cell-based; details: Enterovirus, WI-38, 25 μg/ml, Wl-38 human embryonic lung cells, read-out: inhibition grade
Description: as §4, §5, §6

rhinovirus type 6 = assay: Inhibition of cytopathic effect in Wl-38 cells, type 6; format: cell-based; details: Enterovirus, WI-38, 25 μg/ml, Wl-38 human embryonic lung cells, read-out: inhibition grade
Description: as §4, §5, §6

rhinovirus type 10 = assay: Inhibition of cytopathic effect in Wl-38 cells, type 10; format: cell-based; details: Enterovirus, WI-38, 25 μg/ml, Wl-38 human embryonic lung cells, read-out: inhibition grade
Description: as §4, §5, §6

rhinovirus type 13 = assay: Inhibition of cytopathic effect in Wl-38 cells, type 13; format: cell-based; details: Enterovirus, WI-38, 25 μg/ml, Wl-38 human embryonic lung cells, read-out: inhibition grade
Description: as §4, §5, §6

rhinovirus type 17 = assay: Inhibition of cytopathic effect in Wl-38 cells, type 17; format: cell-based; details: Enterovirus, WI-38, 25 μg/ml, Wl-38 human embryonic lung cells, read-out: inhibition grade
Description: as §4, §5, §6

rhinovirus type 19 = assay: Inhibition of cytopathic effect in Wl-38 cells, type 19; format: cell-based; details: Enterovirus, WI-38, 25 μg/ml, Wl-38 human embryonic lung cells, read-out: inhibition grade
Description: as §4, §5, §6

rhinovirus type 21 = assay: Inhibition of cytopathic effect in Wl-38 cells, type 21; format: cell-based; details: Enterovirus, WI-38, 25 μg/ml, Wl-38 human embryonic lung cells, read-out: inhibition grade
Description: as §4, §5, §6

rhinovirus type 29 = assay: Inhibition of cytopathic effect in Wl-38 cells, type 29; format: cell-based; details: Enterovirus, WI-38, 25 μg/ml, Wl-38 human embryonic lung cells, read-out: inhibition grade
Description: as §4, §5, §6

rhinovirus type 39 = assay: Inhibition of cytopathic effect in Wl-38 cells, type 39; format: cell-based; details: Enterovirus, WI-38, 25 μg/ml, Wl-38 human embryonic lung cells, read-out: inhibition grade
Description: as §4, §5, §6

rhinovirus type 56 = assay: Inhibition of cytopathic effect in Wl-38 cells, type 56; format: cell-based; details: Enterovirus, WI-38, 25 μg/ml, Wl-38 human embryonic lung cells, read-out: inhibition grade
Description: as §4, §5, §6

rhinovirus type 58 = assay: Inhibition of cytopathic effect in Wl-38 cells, type 58; format: cell-based; details: Enterovirus, WI-38, 25 μg/ml, Wl-38 human embryonic lung cells, read-out: inhibition grade
Description: as §4, §5, §6

rhinovirus type 59 = assay: Inhibition of cytopathic effect in Wl-38 cells, type 59; format: cell-based; details: Enterovirus, WI-38, 25 μg/ml, Wl-38 human embryonic lung cells, read-out: inhibition grade
Description: as §4, §5, §6

rhinovirus type 60 = assay: Inhibition of cytopathic effect in Wl-38 cells, type 60; format: cell-based; details: Enterovirus, WI-38, 25 μg/ml, Wl-38 human embryonic lung cells, read-out: inhibition grade
Description: as §4, §5, §6

rhinovirus type 64 = assay: Inhibition of cytopathic effect in Wl-38 cells, type 64; format: cell-based; details: Enterovirus, WI-38, 25 μg/ml, Wl-38 human embryonic lung cells, read-out: inhibition grade
Description: as §4, §5, §6

rhinovirus type 74 = assay: Inhibition of cytopathic effect in Wl-38 cells, type 74; format: cell-based; details: Enterovirus, WI-38, 25 μg/ml, Wl-38 human embryonic lung cells, read-out: inhibition grade
Description: as §4, §5, §6

rhinovirus type 81 = assay: Inhibition of cytopathic effect in Wl-38 cells, type 81; format: cell-based; details: Enterovirus, WI-38, 25 μg/ml, Wl-38 human embryonic lung cells, read-out: inhibition grade
Description: as §4, §5, §6

rhinovirus type 68 = assay: Inhibition of cytopathic effect in Wl-38 cells, type 68; format: cell-based; details: Enterovirus, WI-38, 25 μg/ml, Wl-38 human embryonic lung cells, read-out: inhibition grade
Description: as §4, §5, §6

rhinovirus type 8 = assay: Inhibition of cytopathic effect in Wl-38 cells, type 8; format: cell-based; details: Enterovirus, WI-38, 25 μg/ml, Wl-38 human embryonic lung cells, read-out: inhibition grade
Description: as §4, §5, §6

rhinovirus type 75 = assay: Inhibition of cytopathic effect in Wl-38 cells, type 75; format: cell-based; details: Enterovirus, WI-38, 25 μg/ml, Wl-38 human embryonic lung cells, read-out: inhibition grade
Description: as §4, §5, §6

Acute toxicity in rats = details: rat, in vivo
[6] = Acute oral toxicity in beagle dogs; details: dog, in vivo
Picornaviruses = assay: Antiviral effectiveness against picornaviruses, overall; format: cell-based
Description: as §1
Solutions of 4-(4-(methylsulfonyl)phenoxy)-1,2-dichlorobenzene were prepared by dissolving 5 milligrams of the compound in 0.1 ml dimethyl sulfoxide and incubating at 56° C. for at least 15 minutes. This solution was added to 0.9 ml of warmed (56° C.) maintenance medium (49% Eagles, 49% medium 199, 2% fetal calf serum and antibiotics), and the resulting 1.0 ml was then added to 9 ml of warmed (56° C.) maintenance medium. From this solution the final concentrations of 100, 50, 25, or 12.5 μg/ml were made up with maintenance medium. […]

Question: With `CS(=O)(=O)c1ccc(Oc2ccc(Cl)c(Cl)c2)cc1` [Example 1, 4-(4-(Methylsulfonyl)phenoxy)-1,2-dichlorobenzene] as the compound, how does the MCC [1] read?
Answer: 50 to 100 µg/mL

Question: And the EC50 [2]?
Answer: 0.25 µg/mL (≈ 0.788 µM)

Question: What about the EC50 (rhinovirus type 2 (RV-2)) of the same compound?
Answer: 0.25 µg/mL (≈ 0.788 µM)

Question: What about the EC50 [3] of the same compound?
Answer: 2.5 µg/mL (≈ 7.88 µM)

Question: And the EC50 (rhinovirus type 8 (RV-8))?
Answer: ~50 µg/mL (≈ 158 µM)

Question: And the EC50 [4]?
Answer: 0.25 µg/mL (≈ 0.788 µM)

Question: What about the “antiviral activity in Single Oral Dose test” value (Cox A21) of the same compound?
Answer: exhibited antiviral activity

Question: What about the “antiviral activity in Continuous Oral Feeding test” value (Coxsackie A21 virus) of the same compound?
Answer: exhibited antiviral activity

Question: And the inhibition at 25 µg/mL [5]?
Answer: ≥ 75%

Question: What about the inhibition at 25 µg/mL (rhinovirus type 4) of the same compound?
Answer: ≥ 75%

Question: What about the inhibition at 25 µg/mL (rhinovirus type 6) of the same compound?
Answer: ≥ 75%

Question: What about the inhibition at 25 µg/mL (rhinovirus type 10) of the same compound?
Answer: ≥ 75%

Question: And the inhibition at 25 µg/mL (rhinovirus type 13)?
Answer: ≥ 75%

Question: And the inhibition at 25 µg/mL (rhinovirus type 17)?
Answer: ≥ 75%

Question: What about the inhibition at 25 µg/mL (rhinovirus type 19) of the same compound?
Answer: ≥ 75%

Question: And the inhibition at 25 µg/mL (rhinovirus type 21)?
Answer: ≥ 75%

Question: And the inhibition at 25 µg/mL (rhinovirus type 29)?
Answer: ≥ 75%

Question: What about the inhibition at 25 µg/mL (rhinovirus type 39) of the same compound?
Answer: ≥ 75%

Question: And the inhibition at 25 µg/mL (rhinovirus type 56)?
Answer: ≥ 75%

Question: What about the inhibition at 25 µg/mL (rhinovirus type 58) of the same compound?
Answer: ≥ 75%

Question: What about the inhibition at 25 µg/mL (rhinovirus type 59) of the same compound?
Answer: ≥ 75%

Question: And the inhibition at 25 µg/mL (rhinovirus type 60)?
Answer: ≥ 75%

Question: And the inhibition at 25 µg/mL (rhinovirus type 64)?
Answer: ≥ 75%

Question: And the inhibition at 25 µg/mL (rhinovirus type 74)?
Answer: ≥ 75%

Question: And the inhibition at 25 µg/mL (rhinovirus type 81)?
Answer: ≥ 75%

Question: What about the inhibition at 25 µg/mL (rhinovirus type 68) of the same compound?
Answer: 50 to 74%

Question: What about the inhibition at 25 µg/mL (rhinovirus type 8) of the same compound?
Answer: < 50%

Question: What about the inhibition at 25 µg/mL (rhinovirus type 75) of the same compound?
Answer: < 50%

Question: And the LD50 (Acute toxicity in rats; ip, intraperitoneal, read-out: acute toxicity, intraperitoneal administration)?
Answer: > 1000 mg/kg

Question: And the LD50 (Acute toxicity in rats; oral, read-out: acute oral toxicity)?
Answer: > 2000 mg/kg

Question: What about the LD50 [6] of the same compound?
Answer: > 2000 mg/kg

Question: And the “effectiveness against Picornaviruses” value (Picornaviruses)?
Answer: particularly effective against Picornaviruses
